Read-outs that look alike come from different tables or passages of the source.
Target: T1, Recombinant human TPH1 (MBP tagged) (Homo sapiens, UniProt P17752)
T1 construct: cloning full length human TPH1 cDNA in to a bacterial pMAL-c5E expression vector; made in house; host or cells: E. coli BL21 (DE3)
T1 sequence (P17752 1-444): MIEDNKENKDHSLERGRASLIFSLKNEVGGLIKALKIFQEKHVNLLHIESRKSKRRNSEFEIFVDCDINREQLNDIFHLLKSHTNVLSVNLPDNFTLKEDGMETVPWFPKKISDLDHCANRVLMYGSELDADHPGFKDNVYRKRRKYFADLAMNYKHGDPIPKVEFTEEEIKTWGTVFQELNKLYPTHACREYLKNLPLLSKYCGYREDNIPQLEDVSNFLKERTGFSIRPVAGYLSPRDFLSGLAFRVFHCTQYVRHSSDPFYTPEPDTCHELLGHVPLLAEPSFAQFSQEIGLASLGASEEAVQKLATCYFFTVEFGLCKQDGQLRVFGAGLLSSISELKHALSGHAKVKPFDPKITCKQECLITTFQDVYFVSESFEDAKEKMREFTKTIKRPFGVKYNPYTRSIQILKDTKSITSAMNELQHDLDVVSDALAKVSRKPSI
Assay: TPH1 in vitro inhibition assay (kinetic fluorescence)
Type: biochemical
Method in brief: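 Final mix: 15 nM MBP-TPH1, 30 μM Trp, 36 μM 6-methyltetrahydropterin, 25 μM ferrous ammonium sulfate, 50 mM MES pH 7.1, 1% DMSO, room temperature.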

[1] = read-out: TPH1 Range (TPH1 inhibition IC50)
[2] = TPH1 Range (TPH1 inhibition IC50)

| Structure (SMILES) | IC50 [1] | IC50 [2] |
| --- | --- | --- |
| CN1C(=O)CCc2cc(-c3ccc([C@@H](Oc4cc(N5CCC6(CC5)CN[C@H](C(=O)O)C6)nc(N)n4)C(F)(F)F)cc3)ccc21 [Example 55aj, (S)-8-(2-amino-6-((R)-2,2,2-trifluoro-1-(4-(1-methyl-2-oxo-1,2,3,4-tetrahydroquinolin-6-yl)phenyl)ethoxy)pyrimidin-4-yl)-2,8-diazaspiro[4.5]decane-3-carboxylic acid] | 50 to 300 nM | – |
| COc1cc(F)cc(-c2ccc([C@@H](Oc3cc(N4CCC5(CC4)CN[C@H](C(=O)O)C5)nc(N)n3)C(F)(F)F)cc2)c1 [Example 55ao, (S)-8-(2-amino-6-((R)-2,2,2-trifluoro-1-(3′-fluoro-5′-methoxy-[1,1′-biphenyl]-4-yl)ethoxy)pyrimidin-4-yl)-2,8-diazaspiro[4.5]decane-3-carboxylic acid] | 50 to 300 nM | – |
| Nc1nc(O[C@H](c2ccc(-c3cc(F)cc(F)c3)cc2)C(F)(F)F)cc(N2CCC3(CC2)CN[C@H](C(=O)O)C3)n1 [Example 55ap, (S)-8-(2-amino-6-((R)-1-(3′,5′-difluoro-[1,1′-biphenyl]-4-yl)-2,2,2-trifluoroethoxy)pyrimidin-4-yl)-2,8-diazaspiro[4.5]decane-3-carboxylic acid] | 50 to 300 nM | – |
| COc1ccc(-c2ccc([C@@H](Oc3cc(N4CCC5(CC4)CN[C@H](C(=O)O)C5)nc(N)n3)C(F)(F)F)cc2)cc1 [Example 55aq, (S)-8-(2-amino-6-((R)-2,2,2-trifluoro-1-(4′-methoxy-[1,1′-biphenyl]-4-yl)ethoxy)pyrimidin-4-yl)-2,8-diazaspiro[4.5]decane-3-carboxylic acid] | 50 to 300 nM | – |
| COc1ccccc1-c1ccc([C@@H](Oc2cc(N3CCC4(CC3)CN[C@H](C(=O)O)C4)nc(N)n2)C(F)(F)F)cc1 [Example 55ar, (S)-8-(2-amino-6-((R)-2,2,2-trifluoro-1-(2′-methoxy-[1,1′-biphenyl]-4-yl)ethoxy)pyrimidin-4-yl)-2,8-diazaspiro[4.5]decane-3-carboxylic acid] | 50 to 300 nM | – |
| Nc1nc(O[C@H](c2ccc(-c3cccc(C(F)(F)F)c3)cc2)C(F)(F)F)cc(N2CCC3(CC2)CN[C@H](C(=O)O)C3)n1 [Example 55as, (S)-8-(2-amino-6-((R)-2,2,2-trifluoro-1-(3′-(trifluoromethyl)-[1,1′-biphenyl]-4-yl)ethoxy)pyrimidin-4-yl)-2,8-diazaspiro[4.5]decane-3-carboxylic acid] | 50 to 300 nM | – |
| Nc1nc(O[C@H](c2ccc(-c3cccc(OC(F)(F)F)c3)cc2)C(F)(F)F)cc(N2CCC3(CC2)CN[C@H](C(=O)O)C3)n1 [Example 55at, (S)-8-(2-amino-6-((R)-2,2,2-trifluoro-1-(3′-(trifluoromethoxy)-[1,1′-biphenyl]-4-yl)ethoxy)pyrimidin-4-yl)-2,8-diazaspiro[4.5]decane-3-carboxylic acid] | 50 to 300 nM | – |
| CCOc1cccc(-c2ccc([C@@H](Oc3cc(N4CCC5(CC4)CN[C@H](C(=O)O)C5)nc(N)n3)C(F)(F)F)cc2)c1 [Example 55au, (S)-8-(2-amino-6-((R)-1-(3′-ethoxy-[1,1′-biphenyl]-4-yl)-2,2,2-trifluoroethoxy)pyrimidin-4-yl)-2,8-diazaspiro[4.5]decane-3-carboxylic acid] | 50 to 300 nM | – |
| CC(C)Oc1cccc(-c2ccc([C@@H](Oc3cc(N4CCC5(CC4)CN[C@H](C(=O)O)C5)nc(N)n3)C(F)(F)F)cc2)c1 [Example 55av, (S)-8-(2-amino-6-((R)-2,2,2-trifluoro-1-(3′-isopropoxy-[1,1′-biphenyl]-4-yl)ethoxy)pyrimidin-4-yl)-2,8-diazaspiro[4.5]decane-3-carboxylic acid] | 50 to 300 nM | – |
| Nc1nc(O[C@H](c2ccc(-c3cccnc3)cc2)C(F)(F)F)cc(N2CCC3(CC2)CN[C@H](C(=O)O)C3)n1 [Example 55aw, (S)-8-(2-amino-6-((R)-2,2,2-trifluoro-1-(4-(pyridin-3-yl)phenyl)ethoxy)pyrimidin-4-yl)-2,8-diazaspiro[4.5]decane-3-carboxylic acid] | 300 to 3000 nM | – |
| Nc1nc(O[C@H](c2ccc(-c3ccncc3)cc2)C(F)(F)F)cc(N2CCC3(CC2)CN[C@H](C(=O)O)C3)n1 [Example 55ax, (S)-8-(2-amino-6-((R)-2,2,2-trifluoro-1-(4-(pyridin-4-yl)phenyl)ethoxy)pyrimidin-4-yl)-2,8-diazaspiro[4.5]decane-3-carboxylic acid] | 50 to 300 nM | – |
| Nc1nc(O[C@H](c2ccc(-c3cncnc3)cc2)C(F)(F)F)cc(N2CCC3(CC2)CN[C@H](C(=O)O)C3)n1 [Example 55ay, (S)-8-(2-amino-6-((R)-2,2,2-trifluoro-1-(4-(pyrimidin-5-yl)phenyl)ethoxy)pyrimidin-4-yl)-2,8-diazaspiro[4.5]decane-3-carboxylic acid] | 300 to 3000 nM | – |
| Cc1c2ccc(-c3ccc([C@@H](Oc4cc(N5CCC6(CC5)CN[C@H](C(=O)O)C6)nc(N)n4)C(F)(F)F)cc3)cc2nn1C [Example 55bb] | < 50 nM | – |
| CN1CCc2cc(-c3ccc([C@@H](Oc4cc(N5CCC6(CC5)CN[C@H](C(=O)O)C6)nc(N)n4)C(F)(F)F)cc3)ccc2C1=O [Example 55bj, (S)-8-(2-amino-6-((R)-2,2,2-trifluoro-1-(4-(2-methyl-1-oxo-1,2,3,4-tetrahydroisoquinolin-6-yl)phenyl)ethoxy)pyrimidin-4-yl)-2,8-diazaspiro[4.5]decane-3-carboxylic acid] | – | < 50 nM |

More lines, now with the values ahead:

| IC50 [1] | IC50 [2] | Structure (SMILES) |
| --- | --- | --- |
| – | < 50 nM | Cn1ncc2cc(-c3ccc([C@@H](Oc4cc(N5CCC6(CC5)CN[C@H](C(=O)O)C6)nc(N)n4)C(F)(F)F)cc3)ccc21 [Example 55b, (S)-8-(2-amino-6-((R)-2,2,2-trifluoro-1-(4-(1-methyl-1H-indazol-5-yl)phenyl)ethoxy)pyrimidin-4-yl)-2,8-diazaspiro[4.5]decane-3-carboxylic acid] |
| – | < 50 nM | Cc1nn(C)c2cc(-c3ccc([C@@H](Oc4cc(N5CCC6(CC5)CN[C@H](C(=O)O)C6)nc(N)n4)C(F)(F)F)cc3)ccc12 [Example 55ba, (S)-8-(2-amino-6-((R)-1-(4-(1,3-dimethyl-1H-indazol-6-yl)phenyl)-2,2,2-trifluoroethoxy)pyrimidin-4-yl)-2,8-diazaspiro[4.5]decane-3-carboxylic acid] |
| < 50 nM | – | Nc1nc(O[C@H](c2ccc(-c3ccc4ccncc4c3)cc2)C(F)(F)F)cc(N2CCC3(CC2)CN[C@H](C(=O)O)C3)n1 [Example 55be, (S)-8-(2-amino-6-((R)-2,2,2-trifluoro-1-(4-(isoquinolin-7-yl)phenyl)ethoxy)pyrimidin-4-yl)-2,8-diazaspiro[4.5]decane-3-carboxylic acid] |
| 50 to 300 nM | – | CN(C)Cc1ccc(-c2ccc([C@@H](Oc3cc(N4CCC5(CC4)CN[C@H](C(=O)O)C5)nc(N)n3)C(F)(F)F)cc2)cc1 [Example 55bf, (S)-8-(2-amino-6-((R)-1-(4′-((dimethylamino)methyl)-[1,1′-biphenyl]-4-yl)-2,2,2-trifluoroethoxy)pyrimidin-4-yl)-2,8-diazaspiro[4.5]decane-3-carboxylic acid] |
| 50 to 300 nM | – | Nc1nc(O[C@H](c2ccc(-c3ccc4cccnc4c3)cc2)C(F)(F)F)cc(N2CCC3(CC2)CN[C@H](C(=O)O)C3)n1 [Example 55bh, (S)-8-(2-amino-6-((R)-2,2,2-trifluoro-1-(4-(quinolin-7-yl)phenyl)ethoxy)pyrimidin-4-yl)-2,8-diazaspiro[4.5]decane-3-carboxylic acid] |
| < 50 nM | – | Nc1nc(O[C@H](c2ccc(-c3ccc4nccnc4c3)cc2)C(F)(F)F)cc(N2CCC3(CC2)CN[C@H](C(=O)O)C3)n1 [Example 55bi, (S)-8-(2-amino-6-((R)-2,2,2-trifluoro-1-(4-(quinoxalin-6-yl)phenyl)ethoxy)pyrimidin-4-yl)-2,8-diazaspiro[4.5]decane-3-carboxylic acid] |
| 50 to 300 nM | – | Nc1nc(O[C@H](c2ccc(-c3ccc4ncncc4c3)cc2)C(F)(F)F)cc(N2CCC3(CC2)CN[C@H](C(=O)O)C3)n1 [Example 55bk, (S)-8-(2-amino-6-((R)-2,2,2-trifluoro-1-(4-(quinazolin-6-yl)phenyl)ethoxy)pyrimidin-4-yl)-2,8-diazaspiro[4.5]decane-3-carboxylic acid] |
| 300 to 3000 nM | – | COc1cc(F)ccc1-c1ccc([C@@H](Oc2cc(N3CCC4(CC3)CN[C@H](C(=O)O)C4)nc(N)n2)C(F)(F)F)cc1 [Example 55bl, (S)-8-(2-amino-6-((R)-2,2,2-trifluoro-1-(4′-fluoro-2′-methoxy-[1,1′-biphenyl]-4-yl)ethoxy)pyrimidin-4-yl)-2,8-diazaspiro[4.5]decane-3-carboxylic acid] |
| 300 to 3000 nM | – | COc1cccc(-c2ccc([C@@H](Oc3cc(N4CCC5(CC4)CN[C@H](C(=O)O)C5)nc(N)n3)C(F)(F)F)cc2)c1F [Example 55bm, (S)-8-(2-amino-6-((R)-2,2,2-trifluoro-1-(2′-fluoro-3′-methoxy-[1,1′-biphenyl]-4-yl)ethoxy)pyrimidin-4-yl)-2,8-diazaspiro[4.5]decane-3-carboxylic acid] |
| 3000 to 10000 nM | – | COc1ccc(F)c(-c2ccc([C@@H](Oc3cc(N4CCC5(CC4)CN[C@H](C(=O)O)C5)nc(N)n3)C(F)(F)F)cc2)c1 [Example 55bn, (S)-8-(2-amino-6-((R)-2,2,2-trifluoro-1-(2′-fluoro-5′-methoxy-[1,1′-biphenyl]-4-yl)ethoxy)pyrimidin-4-yl)-2,8-diazaspiro[4.5]decane-3-carboxylic acid] |

From patent US11759462B2, “Spirocyclic compounds as tryptophan hydroxylase inhibitors” (priority 2013, dated 2023)
